Measured values as given in patent US12077503B2, “Substituted cyclic amides and their use as herbicides” (FMC CORPORATION, priority 2015, dated 2024).

Legend:
Format in all cases: in vivo
Kochia (Kochia scoparia) [1] = assay: Test A preemergence
Summary of the method: (§1)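 In a loam soil and sand blend, planted seeds got a preemergence directed soil spray, and young plants at the one- to two-leaf stage, 2–10 cm high, got a postemergence application; ~10 d greenhouse hold; injury rated visually, 0 = none, 100 = complete control.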

[2] = test system: barnyardgrass (Echinochloa crus-galli); assay: Test A preemergence
Summary of the method: as §1

[3] = test system: giant foxtail (Setaria faberii); assay: Test A preemergence
Summary of the method: as §1

[4] = test system: pigweed (Amaranthus retroflexus); assay: Test A preemergence
[5] = test system: ragweed (common ragweed, Ambrosia elatior); assay: Test A preemergence
Summary of the method: as §1

[6] = test system: ryegrass, Italian (Italian ryegrass, Lolium multiflorum); assay: Test A preemergence
Summary of the method: as §1

[7] = test system: Galium (catchweed bedstraw, Galium aparine); assay: Test A postemergence
Summary of the method: as §1

Kochia (Kochia scoparia) [8] = assay: Test A postemergence
Summary of the method: as §1

[9] = test system: barnyardgrass (Echinochloa crus-galli); assay: Test A postemergence; conditions: postemergence
Summary of the method: as §1

[10] = test system: blackgrass (Alopecurus myosuroides); assay: Test A postemergence; conditions: postemergence
Summary of the method: as §1

corn (Zea mays) = assay: Test A postemergence; conditions: postemergence
Summary of the method: as §1

[11] = test system: giant foxtail (Setaria faberii); assay: Test A postemergence
Summary of the method: as §1

[12] = test system: pigweed (Amaranthus retroflexus); assay: Test A postemergence
Summary of the method: as §1

[13] = test system: ragweed (common ragweed, Ambrosia elatior); assay: Test A postemergence
Summary of the method: as §1

[14] = test system: ryegrass, Italian (Italian ryegrass, Lolium multiflorum); assay: Test A postemergence
Summary of the method: as §1

[15] = test system: wheat (Triticum aestivum); assay: Test A postemergence
Summary of the method: as §1

[16] = test system: barnyardgrass (Echinochloa crus-galli); assay: Test B flooded paddy test; conditions: Flood, 0 to 100 scale where 0 is no effect and 100 is complete control, 13 to 15 d
Summary of the method: (§2)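 Greenhouse paddy pots with 2-leaf stage plants received compound by direct addition to floodwater 3 cm deep, kept at that level. Scored visually at 13–15 d versus controls (0 no effect; 100 complete control).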

[17] = test system: ducksalad (Heteranthera limosa); assay: Test B flooded paddy test; conditions: Flood, 0 to 100 scale where 0 is no effect and 100 is complete control, 13 to 15 d
Summary of the method: as §2

rice (Oryra sativa) = assay: Test B flooded paddy test; conditions: Flood, 0 to 100 scale where 0 is no effect and 100 is complete control, 13 to 15 d
Summary of the method: as §2

[18] = test system: sedge, umbrella (small-flower umbrella sedge, Cyperus difformis); assay: Test B flooded paddy test; conditions: Flood, 0 to 100 scale where 0 is no effect and 100 is complete control, 13 to 15 d
Summary of the method: as §2

[19] = 125 g ai/ha, preemergence, visual rating after approx. 10 d, 0 to 100 scale where 0 is no effect and 100 is complete control
[20] = 500 g ai/ha, preemergence, 0 to 100 scale, 0 = no effect, 100 = complete control
[21] = 125 g ai/ha, postemergence, visual injury after approximately 10 d, 0 to 100 scale (0 no effect, 100 complete control)
[22] = 500 g ai/ha, postemergence, visual injury, 0 to 100 scale (0 no effect, 100 complete control), approx. 10 d
[23] = 125 g ai/ha, visual injury after approximately 10 d, 0 to 100 scale (0 no effect, 100 complete control)
[24] = 500 g ai/ha, visual injury, 0 to 100 scale (0 no effect, 100 complete control), approx. 10 d
[25] = 125 g ai/ha, preemergence, 0 to 100 scale (0 no effect, 100 complete control)
[26] = Preemergence, 500 g ai/ha, visual injury approx. 10 d
[27] = 125 g ai/ha, Preemergence, visual injury after approximately 10 d, 0 to 100 scale where 0 is no effect and 100 is complete control
[28] = 125 g ai/ha, postemergence, visual injury rating on 0 to 100 scale (0 no effect, 100 complete control), approx. 10 d
[29] = Postemergence, 500 g ai/ha, 0 to 100 scale where 0 is no effect and 100 is complete control
[30] = 125 g ai/ha, visual injury rating on 0 to 100 scale (0 no effect, 100 complete control), approx. 10 d
[31] = 500 g ai/ha, 0 to 100 scale, 0 no effect, 100 complete control
[32] = 125 g ai/ha, postemergence, visual rating after approx. 10 d, 0 to 100 scale (0 no effect, 100 complete control)
[33] = 125 g ai/ha, visual rating after approx. 10 d, 0 to 100 scale (0 no effect, 100 complete control)

O=C1NCC(c2ccc(I)cc2)C1C(=O)Nc1cccc(F)c1 (racemic) [Compound 703]
30: Plant response rating, Barnyardgrass ([16]; 500 g ai/ha)
80: Plant response rating, Barnyardgrass [2, 20] | Plant response rating, Foxtail, Giant [3, 19]
90: Plant response rating, Foxtail, Giant [3, 20] | Plant response rating, Foxtail, Giant [11, 22]
60: Plant response rating, Barnyardgrass [9, 23]
98: Plant response rating, Ducksalad ([17]; 500 g ai/ha)
20: Plant response rating, Barnyardgrass [2, 19]
70: Plant response rating, Barnyardgrass [9, 24]
0: Plant response rating, Kochia (Kochia (Kochia scoparia) [1]; [19]) | Plant response rating, Pigweed [4, 19] | Plant response rating, Pigweed [4, 20] | Plant response rating, Ragweed [5, 19] | Plant response rating, Ragweed [5, 20] | Plant response rating, Ryegrass, Italian [6, 19] | Plant response rating, Ryegrass, Italian [6, 20] | Plant response rating, Galium [7, 21] | Plant response rating, Galium [7, 22] | Plant response rating, Kochia (Kochia (Kochia scoparia) [8]; [21]) | Plant response rating, Kochia (Kochia (Kochia scoparia) [8]; [22]) | Plant response rating, Blackgrass [10, 23] | Plant response rating, Blackgrass [10, 24] | Plant response rating, Corn (corn (Zea mays); [23]) | Plant response rating, Corn (corn (Zea mays); [24]) | Plant response rating, Pigweed [12, 21] | Plant response rating, Pigweed [12, 22] | Plant response rating, Ragweed [13, 21] | Plant response rating, Ragweed [13, 22] | Plant response rating, Ryegrass, Italian [14, 21] | Plant response rating, Ryegrass, Italian [14, 22] | Plant response rating, Wheat [15, 21] | Plant response rating, Wheat [15, 22] | Plant response rating, Rice (rice (Oryra sativa); 500 g ai/ha) | Plant response rating, Sedge, Umbrella ([18]; 500 g ai/ha)
50: Plant response rating, Foxtail, Giant [11, 21]

C=C(Cl)CN1CC(c2cccc(C(F)(F)F)c2)C(C(=O)Nc2cccc(F)c2F)C1=O (centres unmarked) [Compound 480]
20: Foxtail, Giant plant response rating [11, 28]
90: Foxtail, Giant plant response rating (0 to 100 scale, 0 is no effect, 100 is complete control) [3, 26]
0: Plant response rating, Kochia (Kochia (Kochia scoparia) [1]; [25]) | Kochia plant response rating (0 to 100 scale, 0 is no effect, 100 is complete control) (Kochia (Kochia scoparia) [1]; [26]) | Plant response rating, Barnyardgrass [2, 25] | Barnyardgrass plant response rating (0 to 100 scale, 0 is no effect, 100 is complete control) [2, 26] | Plant response rating, Pigweed [4, 27] | Pigweed plant response rating (0 to 100 scale, 0 is no effect, 100 is complete control) [4, 26] | Plant response rating, Ragweed [5, 27] | Ragweed plant response rating (0 to 100 scale, 0 is no effect, 100 is complete control) [5, 26] | Plant response rating, Ryegrass, Italian [6, 27] | Ryegrass, Italian plant response rating (0 to 100 scale, 0 is no effect, 100 is complete control) [6, 26] | Galium plant response rating [7, 28] | Plant response rating, Galium [7, 29] | Kochia plant response rating (Kochia (Kochia scoparia) [8]; [28]) | Plant response rating, Kochia (Kochia (Kochia scoparia) [8]; [29]) | Barnyardgrass plant response rating [9, 30] | Blackgrass plant response rating [10, 30] | Plant response rating, Blackgrass [10, 31] | Corn plant response rating (corn (Zea mays); [30]) | Plant response rating, Corn (corn (Zea mays); [31]) | Pigweed plant response rating [12, 28] | Plant response rating, Pigweed [12, 29] | Ragweed plant response rating [13, 28] | Plant response rating, Ragweed [13, 29] | Ryegrass, Italian plant response rating [14, 28] | Plant response rating, Ryegrass, Italian [14, 29] | Wheat plant response rating [15, 28] | Plant response rating, Barnyardgrass ([16]; 250 g ai/ha) | Plant response rating, Ducksalad ([17]; 250 g ai/ha) | Plant response rating, Rice (rice (Oryra sativa); 250 g ai/ha) | Plant response rating, Sedge, Umbrella ([18]; 250 g ai/ha)
50: Plant response rating, Foxtail, Giant [11, 29]
70: Plant response rating, Foxtail, Giant [3, 25]
30: Plant response rating, Barnyardgrass [9, 31] | Plant response rating, Wheat [15, 29]

Cc1cccc(C2CN(C)C(=O)C2C(=O)Nc2ccccc2F)c1 (centres unmarked) [Compound 666]
20: Plant response rating, Kochia (Kochia (Kochia scoparia) [1]; [27]) | Plant response rating, Pigweed [4, 20] | Plant response rating, Ryegrass, Italian [6, 27] | Plant response rating, Ryegrass, Italian [14, 32] | Plant response rating, Wheat [15, 32]
100: Plant response rating, Foxtail, Giant [3, 27] | Plant response rating, Foxtail, Giant [3, 20]
70: Plant response rating, Ragweed [5, 20]
75: Plant response rating, Barnyardgrass ([16]; 250 g ai/ha)
90: Plant response rating, Barnyardgrass [2, 27] | Plant response rating, Barnyardgrass [2, 20] | Plant response rating, Barnyardgrass [9, 33] | Plant response rating, Barnyardgrass [9, 24] | Plant response rating, Foxtail, Giant [11, 32] | Plant response rating, Foxtail, Giant [11, 22]
0: Plant response rating, Pigweed [4, 27] | Plant response rating, Ragweed [5, 27] | Plant response rating, Kochia (Kochia (Kochia scoparia) [8]; [32]) | Plant response rating, Pigweed [12, 32] | Plant response rating, Pigweed [12, 22] | Plant response rating, Ragweed [13, 32] | Plant response rating, Ragweed [13, 22] | Plant response rating, Rice (rice (Oryra sativa); 250 g ai/ha) | Plant response rating, Sedge, Umbrella ([18]; 250 g ai/ha)
85: Plant response rating, Ducksalad ([17]; 250 g ai/ha)
80: Plant response rating, Corn (corn (Zea mays); [24])
40: Plant response rating, Galium [7, 22]
50: Plant response rating, Ryegrass, Italian [6, 20]
30: Plant response rating, Galium [7, 32] | Plant response rating, Kochia (Kochia (Kochia scoparia) [8]; [22])
60: Plant response rating, Kochia (Kochia (Kochia scoparia) [1]; [20]) | Plant response rating, Blackgrass [10, 33] | Plant response rating, Blackgrass [10, 24] | Plant response rating, Corn (corn (Zea mays); [33]) | Plant response rating, Ryegrass, Italian [14, 22] | Plant response rating, Wheat [15, 22]
